The text below walks through data of US7576215B2, “Quinolines and pharmaceutical compositions thereof” (Wyeth, priority 2003, dated 2009).

SMILES strings stand for the structures.

In general, melting point refers to the temperature, or range, at which the solid turns liquid. Regarding `COC(=O)/C=C/c1ccc(COc2cccc(-c3c(-c4ccccc4)cnc4c(C(F)(F)F)cccc34)c2)cc1`, the melting point turned out to be 91 °C.

For `COC(=O)/C=C/c1ccc(COc2cc(-c3c(-c4ccccc4)cnc4c(C(F)(F)F)cccc34)ccc2Cl)cc1`, the melting point was 149 to 151 °C.

As for `O=C(O)/C=C/c1ccc(COc2cc(-c3c(-c4ccccc4)cnc4c(C(F)(F)F)cccc34)ccc2Cl)cc1`, the melting point was 257 °C. Under `O=S(=O)(c1ccccc1)c1cnc2c(C(F)(F)F)cccc2c1-c1ccccc1` stands 149 to 151 °C; under `Cc1ccccc1-c1cnc2c(C(F)(F)F)cccc2c1-c1cccc(NC(=O)Nc2ccccc2)c1`, 192 to 195 °C; under `Cc1ccccc1-c1cnc2c(C(F)(F)F)cccc2c1-c1cccc(NC(=O)Nc2ccccc2Cl)c1`, 224 to 226 °C.

`OCCc1ccc(COc2cccc(-c3c(-c4ccccc4)cnc4c(C(F)(F)F)cccc34)c2)cc1` had a melting point of 50 °C. The compound `Cc1ccccc1-c1cnc2c(C(F)(F)F)cccc2c1-c1cccc(N)c1` displayed a melting point of 148 to 151 °C. In turn, `O=C(Nc1ccccc1)c1cnc2c(C(F)(F)F)cccc2c1-c1ccccc1` [Example 72, N, 4-DIPHENYL-8-(TRIFLUOROMETHYL)QUINOLINE-3-CARBOXAMIDE] had a melting point of 207 to 208 °C. Then `O=C(Nc1ccccc1)Nc1cccc(-c2c(-c3ccccc3)cnc3c(C(F)(F)F)cccc23)c1` [Example 75, N-PHENYL-N′-{3-[3-PHENYL-8-(TRIFLUOROMETHYL)QUINOLIN-4-YL]PHENYL}UREA], with 202 to 205 °C; and `O=C(Nc1cccc(-c2c(-c3ccccc3)cnc3c(C(F)(F)F)cccc23)c1)Nc1ccccc1Cl` [Example 76, N-(2-CHLOROPHENYL)-N′-{3-[3-PHENYL-8-(TRIFLUOROMETHYL)QUINOLIN-4-YL]PHENYL}UREA], with 192 to 195 °C; and `Cc1ccc(NC(=O)c2cnc3c(C(F)(F)F)cccc3c2-c2ccccc2)cc1` [Example 368, N-(4-METHYLPHENYL)-4-PHENYL-8-(TRIFLUOROMETHYL)QUINOLINE-3-CARBOXAMIDE], with 203 to 205 °C. Turning to `Cc1cccc(NC(=O)c2cnc3c(C(F)(F)F)cccc3c2-c2ccccc2)c1` [Example 370, N-(3-METHYLPHENYL)-4-PHENYL-8-(TRIFLUOROMETHYL)QUINOLINE-3-CARBOXAMIDE], the melting point lay within 182 to 184 °C.

In turn, `O=C(Nc1cccc(C(F)(F)F)c1)c1cnc2c(C(F)(F)F)cccc2c1-c1ccccc1` [Example 371, 4-PHENYL-8-(TRIFLUOROMETHYL)-N-[3-(TRIFLUOROMETHYL)PHENYL]QUINOLINE-3-CARBOXAMIDE] came in with a melting point of 155 to 157 °C.

On to `O=C(Nc1ccc(Cl)cc1)c1cnc2c(C(F)(F)F)cccc2c1-c1ccccc1` [Example 372, N-(4-CHLOROPHENYL)-4-PHENYL-8-(TRIFLUOROMETHYL)QUINOLINE-3-CARBOXAMIDE], for which the melting point lay in the range of 153 to 155 °C.

On to `O=C(Nc1cccc(Cl)c1)c1cnc2c(C(F)(F)F)cccc2c1-c1ccccc1` [Example 373, N-(3-CHLOROPHENYL)-4-PHENYL-8-(TRIFLUOROMETHYL)QUINOLINE-3-CARBOXAMIDE], for which the melting point is 159 to 161 °C.

Consider `O=C(Nc1ccccc1Cl)c1cnc2c(C(F)(F)F)cccc2c1-c1ccccc1` [Example 374, N-(2-CHLOROPHENYL)-4-PHENYL-8-(TRIFLUOROMETHYL)QUINOLINE-3-CARBOXAMIDE], for which the melting point lay in the range of 173 to 175 °C. The compound `O=C(Nc1ccc(F)cc1)c1cnc2c(C(F)(F)F)cccc2c1-c1ccccc1` [Example 376, N-(4-FLUOROPHENYL)-4-PHENYL-8-(TRIFLUOROMETHYL)QUINOLINE-3-CARBOXAMIDE] came in with a melting point of 157 to 159 °C. Then `O=C(Nc1cccc(F)c1)c1cnc2c(C(F)(F)F)cccc2c1-c1ccccc1` [Example 377, N-(3-FLUOROPHENYL)-4-PHENYL-8-(TRIFLUOROMETHYL)QUINOLINE-3-CARBOXAMIDE], with 171 to 173 °C; and `CN(C(=O)c1cnc2c(C(F)(F)F)cccc2c1-c1ccccc1)c1ccccc1` [Example 378, N-METHYL-N,4-DIPHENYL-8-(TRIFLUOROMETHYL)QUINOLINE-3-CARBOXAMIDE], with 188 to 190 °C.

Compound `Cc1cccc(N(C)C(=O)c2cnc3c(C(F)(F)F)cccc3c2-c2ccccc2)c1` [Example 379, N-METHYL-N-(3-METHYLPHENYL)-4-PHENYL-8-(TRIFLUOROMETHYL)QUINOLINE-3-CARBOXAMIDE] yielded a melting point of 174 to 176 °C. In turn, `Cc1ccc(N(C)C(=O)c2cnc3c(C(F)(F)F)cccc3c2-c2ccccc2)cc1` [Example 380, N-METHYL-N-(4-METHYLPHENYL)-4-PHENYL-8-(TRIFLUOROMETHYL)QUINOLINE-3-CARBOXAMIDE] displayed a melting point of 143 to 145 °C. Then `Cc1ccccc1N(C)C(=O)c1cnc2c(C(F)(F)F)cccc2c1-c1ccccc1` [Example 381, N-METHYL-N-(2-METHYLPHENYL)-4-PHENYL-8-(TRIFLUOROMETHYL)QUINOLINE-3-CARBOXAMIDE], with 144 °C; and `CN(C(=O)c1cnc2c(C(F)(F)F)cccc2c1-c1ccccc1)c1cccc(C(F)(F)F)c1` [Example 382, N-METHYL-4-PHENYL-8-(TRIFLUOROMETHYL)-N-[3-(TRIFLUOROMETHYL)PHENYL]QUINOLINE-3-CARBOXAMIDE], with 163 to 165 °C. Under `CN(C(=O)c1cnc2c(C(F)(F)F)cccc2c1-c1ccccc1)c1ccc(Cl)cc1` [Example 383, N-(4-CHLOROPHENYL)-N-METHYL-4-PHENYL-8-(TRIFLUOROMETHYL)QUINOLINE-3-CARBOXAMIDE] stands 177 to 179 °C; under `CN(C(=O)c1cnc2c(C(F)(F)F)cccc2c1-c1ccccc1)c1cccc(Cl)c1` [Example 384, N-(3-CHLOROPHENYL)-N-METHYL-4-PHENYL-8-(TRIFLUOROMETHYL)QUINOLINE-3-CARBOXAMIDE], 211 to 213 °C; under `CCc1ccc(N(C)C(=O)c2cnc3c(C(F)(F)F)cccc3c2-c2ccccc2)cc1` [Example 385, N-(4-ETHYLPHENYL)-N-METHYL-4-PHENYL-8-(TRIFLUOROMETHYL)QUINOLINE-3-CARBOXAMIDE], 136 to 138 °C. Under `CCc1cccc(N(C)C(=O)c2cnc3c(C(F)(F)F)cccc3c2-c2ccccc2)c1` [Example 386, N-(3-ETHYLPHENYL)-N-METHYL-4-PHENYL-8-(TRIFLUOROMETHYL)QUINOLINE-3-CARBOXAMIDE] stands 144 to 146 °C; under `COc1ccccc1N(C)C(=O)c1cnc2c(C(F)(F)F)cccc2c1-c1ccccc1` [Example 387, N-(2-METHOXYPHENYL)-N-METHYL-4-PHENYL-8-(TRIFLUOROMETHYL)QUINOLINE-3-CARBOXAMIDE], 138 °C; under `CN(C(=O)c1cnc2c(C(F)(F)F)cccc2c1-c1ccccc1)c1ccc(F)cc1` [Example 388, N-(4-FLUOROPHENYL)-N-METHYL-4-PHENYL-8-(TRIFLUOROMETHYL)QUINOLINE-3-CARBOXAMIDE], 138 to 140 °C. As for `CN(C(=O)c1cnc2c(C(F)(F)F)cccc2c1-c1ccccc1)c1cccc(F)c1` [Example 389, N-(3-FLUOROPHENYL)-N-METHYL-4-PHENYL-8-(TRIFLUOROMETHYL)QUINOLINE-3-CARBOXAMIDE], the melting point lay within 200 to 202 °C.

`FC(F)(F)c1cccc2c(-c3ccccc3)c(-c3ccccc3)cnc12` [Example 390, 3,4-DIPHENYL-8-(TRIFLUOROMETHYL)QUINOLINE] gave a melting point of 138 to 140 °C. Then `Oc1cccc(-c2c(-c3ccccc3)cnc3c(C(F)(F)F)cccc23)c1` [Example 391, 3-[3-PHENYL-8-(TRIFLUOROMETHYL)QUINOLIN-4-YL]PHENOL], with 123 °C; and `Oc1cc(-c2c(-c3ccccc3)cnc3c(C(F)(F)F)cccc23)ccc1Cl` [Example 392, 2-CHLORO-5-[3-PHENYL-8-(TRIFLUOROMETHYL)QUINOLIN-4-YL]PHENOL], with 252 °C; and `COc1cc(-c2c(-c3ccccc3)cnc3c(C(F)(F)F)cccc23)ccc1Cl` [Example 393, 4-(4-CHLORO-3-METHOXYPHENYL)-3-PHENYL-8-(TRIFLUOROMETHYL)QUINOLINE], with 172 to 174 °C. Under `Nc1cccc(-c2c(-c3ccccc3)cnc3c(C(F)(F)F)cccc23)c1` [Example 395, {3-[3-PHENYL-8-(TRIFLUOROMETHYL)QUINOLIN-4-YL]PHENYL}AMINE] stands 163 to 165 °C; under `O=C(O)Cc1ccc(COc2cccc(-c3c(-c4ccccc4)cnc4c(C(F)(F)F)cccc34)c2)cc1` [Example 398, [4-({3-[3-PHENYL-8-(TRIFLUOROMETHYL)QUINOLIN-4-YL]PHENOXY}METHYL)PHENYL]ACETIC ACID], 122 °C; under `FC(F)(F)c1cccc2c(-c3ccccc3)c(Oc3ccccc3)cnc12` [Example 407, 3-PHENOXY-4-PHENYL-8-(TRIFLUOROMETHYL)QUINOLINE], 122 °C. Then `FC(F)(F)c1cccc2c(-c3ccccc3)c(Sc3ccccc3)cnc12` [Example 411, 4-PHENYL-3-(PHENYLTHIO)-8-(TRIFLUOROMETHYL)QUINOLINE], with 139 to 141 °C; and `Oc1ccc(F)c(-c2c(-c3ccccc3)cnc3c(C(F)(F)F)cccc23)c1` [Example 412, 4-FLUORO-3-[3-PHENYL-8-(TRIFLUOROMETHYL)QUINOLIN-4-YL]PHENOL], with 85 °C; and `Oc1cccc(-c2c(-c3ccccc3F)cnc3c(C(F)(F)F)cccc23)c1` [Example 458, 3-[3-(2-FLUOROPHENYL)-8-(TRIFLUOROMETHYL)QUINOLIN-4-YL]PHENOL], with 186 to 187 °C. `Cc1nc2c(C(F)(F)F)cccc2c(-c2ccccc2)c1C(=O)c1ccccc1` [Example 477, [2-METHYL-4-PHENYL-8-(TRIFLUOROMETHYL)QUINOLIN-3-YL](PHENYL)METHANONE] came in with a melting point of 175 to 177 °C.

`COC(=O)c1ccc(COc2cccc(-c3c(C(=O)c4ccccc4)cnc4c(C(F)(F)F)cccc34)c2)c(OC)c1` [Example 507, METHYL-4-({3-[3-BENZOYL-8-(TRIFLUOROMETHYL)QUINOLIN-4-YL]PHENOXY}METHYL)-3-METHOXYBENZOATE] showed a melting point of 60 to 63 °C.
